Publication PMC4249368 (Antimicrobial Agents and Chemotherapy, 2014)
Values after ≈ are worked out from the molar mass of the structure shown. “Also recorded” adds a separate entry of the source. Read-outs that look alike come from different tables or passages of the source. No end group written: not given here.

What was measured:
MSSA ATCC 25923 [1] = conditions: for MBC, 10% Human serum: Table S1, MHB with 10% human serum; for MBC, 50% Human serum: Table S1, MHB with 50% human serum; for MBC, MHB: Table S1, MHB without serum, clear wells plated onto agar, 37°C overnight
Procedure: MICs against MSSA ATCC 25923 were measured by broth microdilution according to the Clinical and Laboratory Standards Institute (CLSI) M7-A7 methodology ([30]). Briefly, serial 2-fold dilutions of each antibiotic were added into Costar nontreated polystyrene 96-well plates, and each well was inoculated with 50 μl of MSSA in MHB to a final concentration of approximately 5 × 10^5 CFU/ml. […] The dilution representing the MIC and two of the more and less concentrated dilutions were plated out onto Trypticase soy agar plates and enumerated to determine viable CFU/ml ([31]). […]
25923 in MHB media in the presence and absence of Human serum (10% and 50%) in
Corning NonTC microtitre plates (CLS3370)
a The MBCs were determined by plating out the clear wells onto an agar plate and were incubated at
37°C overnight. Each colony represents one viable bacterium. […]

MSSA ATCC 25923 [2] = conditions: for MIC in the presence of 50% human serum: MHB with 50% human serum, broth microdilution; for MIC, MHB: Table S1, MHB without serum, Corning NonTC microtitre plates (CLS3370)
Procedure: MSSA ATCC 25923 was purchased from the American Type Culture Collection (Manassas, VA). Mueller-Hinton broth (MHB; Bacto Laboratories Pty. Ltd.) was used to grow MSSA for determination of in vitro antibacterial activity in the presence and absence of 50% human serum (Life Technologies Australia, Melbourne, Australia) and time-kill assays. Luria-Bertani (LB) medium (Difco) and MHB adjusted with Ca^2+ (25 mg/liter) and Mg^2+ (12.5 mg/liter) (CA-MHB) were used for bacterial growth in the membrane depolarization assay and TEM, respectively. The phospholipids used for SPR analysis, 1-palmitoyl-2-oleoyl-sn-glycero-3-phosphoglycerol (POPG), 1-palmitoyl-2-oleoyl-sn-glycero-3-phosphocholine (POPC), and 1-palmitoyl-2-oleoyl-sn-glycero-3-phosphoethanolamine (POPE), were purchased from Auspep Pty. Ltd. (Melbourne, Australia).
MICs against MSSA ATCC 25923 were measured by broth microdilution according to the Clinical and Laboratory Standards Institute (CLSI) M7-A7 methodology ([30]). Briefly, serial 2-fold dilutions of each antibiotic were added into Costar nontreated polystyrene 96-well plates, and each well was inoculated with 50 μl of MSSA in MHB to a final concentration of approximately 5 × 10^5 CFU/ml. […] The dilution representing the MIC and two of the more and less concentrated dilutions were plated out onto Trypticase soy agar plates and enumerated to determine viable CFU/ml ([31]).

MSSA ATCC 25923 [3] = assay: TEM examination of bacterial ultrastructure; type: cell-based, Staphylococcus aureus; conditions: 3 h, 37°C, CA-MHB
Procedure: After centrifugation (8,000 × rpm, 3 min), the pellets were resuspended in 1 ml of 3% (vol/vol) glutaraldehyde in 0.1 M sodium cacodylate. Glutaraldehyde–fixed samples were washed twice with 0.1 M sodium cacodylate. To postfit cells, 1% (wt/vol) osmium tetraoxide was added. After the wash step, samples were stained with 2% (wt/vol) uranyl acetate in 50% ethanol. Samples were then dehydrated with graded ethanol solutions and infiltrated with Epon resin (ProSciTech, Townsville, Australia). All processes were performed on a Pelco 34700 Biowave microwave oven (Ted Pella Inc., Redding, CA). Ultrathin sections were cut at 60 to 70 nm by using a UC6 ultramicrotome (Leica). The sections were examined in a JEM 1011 TEM operated at 80 kV and photographed using a digital camera.

MSSA ATCC 25923 [4] = assay: Membrane depolarization assay with DiSC3(5); type: cell-based, Staphylococcus aureus; conditions: for membrane depolarization (result in words): 0.1 to 30 μM, Fig. 4, n = 3
Procedure: Antibiotic-induced bacterial cytoplasmic membrane depolarization was determined by using the fluorescent dye 3,3-dipropylthiacarbocyanine [DiSC3(5); Sigma-Aldrich, Australia] as previously described ([38]) with a high-throughput modification. Briefly, mid-logarithmic-phase MSSA ATCC 25923 cells were collected by centrifugation (5,000 × rpm, 10 min), washed once and diluted to approximately 5 × 10^7 CFU/ml in buffer (5 mM HEPES, 5 mM glucose; pH 7.2). The cell suspension was incubated with 0.4 μM DiSC3(5) until dye uptake was maximal, as indicated by a stable reduction in fluorescence of assay medium. KCl at 100 mM was added to equilibrate the cytoplasmic and external K^+ concentrations. A 90-μl aliquot of cell suspension was transferred into an Optiplate 96-well white microplate (PerkinElmer Corp., Australia), and 10 μl of antibiotic was added, to yield a series of solutions ranging from 0.1 to 30 μM. A blank with only cell suspension and dye was used for background subtraction. The fluorescence intensity was monitored in real time by using a BMG Labtech PolarStar Omega multimode reader fitted with 620-10 and 665-10 excitation and emission filters, respectively, at an excitation wavelength of 622 nm and an emission wavelength of 670 nm. The membrane depolarization assays were performed in triplicate, and the fluorescence leakage (FL) was defined by the following equation: FL = (FF − FB) − (FI − FB). Here, FF was the final fluorescence intensity in assay medium after 30 min of treatment with antibiotic, FI was the initial fluorescence intensity of the cell suspension, and FB was the fluorescence intensity of the blank.

MSSA ATCC 25923 [5] = assay: Time-kill studies (CLSI M26-A); type: cell-based, Staphylococcus aureus
Procedure: Time-kill studies were carried out based on guideline M26-A of the CLSI ([32]), using Costar nontreated polystyrene 96-well plates. […] Culture aliquots were mixed with the charcoal suspension (25 mg/ml) to minimize antibiotic carryover. Viable cell counts were determined after 0, 0.5, 1, 2, 4, 6, 8, and 24 h of incubation at 37°C by plating serially diluted samples onto Trypticase soy agar plates. Bactericidal activity was defined as a ≥3-log10 CFU/ml decrease, in comparison with the baseline, after 24 h of incubation ([32]).

[6] = SPR binding to lipid bilayers on Biacore L1 chip; conditions: for normalized antibiotic bound to the three lipid bilayers (result in words): 10 μM, normalized to molecular weight and RULipid, Fig. 3B, n = 3
Procedure: Lipid stock solutions were prepared in chloroform and mixed at the described mass composition of POPC, POPC/POPG (8:2, wt/wt) and POPC/POPE (8:2, wt/wt) ([33]), and the chloroform was evaporated as previously described ([34]). The lipids were resuspended in 1 ml of filtered (0.22-μm pore size) running buffer (phosphate-buffered saline [PBS]; pH 7.3) and then sonicated for 25 min in 5-min intervals. Small unilamellar vesicles (SUVs) were prepared by extrusion through a polycarbonate filter with a 50-nm pore diameter ([35]).
SPR experiments were carried out with a Biacore T200 system (GE Health, Australia) using a Biacore vesicle capture (L1) sensor chip, which has lipophilic groups covalently attached to carboxymethylated dextran that facilitates direct lipid bilayer deposition ([34], [36]). All measurements were undertaken at a temperature of 25°C to maintain the lipid bilayer fluidity ([34]). SUVs at a total lipid concentration of 0.5 mg/ml were immediately passed across the chip surface for 60 min at a low flow rate of 2 μl/min, following three 30-s injections of 20 mM 3-cholamidopropyl-dimethylammonio-1-propane sulfonate (CHAPS) solution at a high flow rate of 30 μl/min to completely remove the captured vesicles from the sensor chip. To remove any multilamellar structures from the lipid surface and to stabilize the baseline, 10 mM NaOH was injected for 1 min at 50 μl/min. The coverage extent of the surface was later determined by a 5-min injection of 0.1 mg/ml bovine serum albumin (BSA) at a flow rate of 10 μl/min.
The antibiotics were serially diluted in running buffer and then injected sequentially from the lowest (0.01 μM) to the highest (10 μM) concentration at a flow rate of 20 μl/min for 180 s, followed by a dissociation of 300 s and a 1-min regeneration with 10 mM HCl at a flow rate of 10 μl/min. SPR experiments were performed in triplicate. The actual amount of antibiotic bound to each lipid bilayer was corrected by subtraction of the bulk refractive index difference (buffer control) and then normalized by dividing the antibiotic-bound resonance units (RUBound) obtained in the SPR sensorgrams (see Fig. 3A, below) by the corresponding antibiotic molecular weight and the resonance units of the individual lipid vesicle captured on the chip surface (RULipid) (see Fig. S1 in the supplemental material) by using the following equation: normalized antibiotic bound = (10^3 × RUBound)/(molecular weight × RULipid). Normalization against molecular weight and RULipid was necessary, as SPR units are mass dependent and RULipid values vary according to lipid type ([37]).

[7] = design: method as in PMID 23872123, PMID 9791177, PMID 16531990; conditions: Lipid II pyrophosphate moiety; cited from earlier work
[8] = design: method as in PMID 23872123, PMID 9791177, PMID 16531990; conditions: phospholipid bilayers; cited from earlier work
[9] = system: transglycosylation step of peptidoglycan biosynthesis; conditions: relative to MIC against MSSA ATCC 25923; cited from earlier work
MSSA and MRSA strains = conditions: cited from earlier work
Description: The importance of the membrane depolarization and bactericidal killing in vivo is difficult to quantify due to the limited published pharmacokinetic (PK) studies ([18], [19]), as well as its nonsystemic oral administration in human clinical trials. In addition, MIC determinations can be highly dependent on plate type, serum, and BSA ([18], [41]).

[10] = system: MurG-catalyzed reaction of peptidoglycan biosynthesis; conditions: relative to MIC against MSSA ATCC 25923; cited from earlier work
[11] = MHB, broth microdilution CLSI M7-A7, ~5 × 10^5 CFU/ml, 24 h, 37°C, Costar nontreated polystyrene 96-well plates

Compound	MBC, 10% Human serum (MSSA ATCC 25923 [1])	MBC, 50% Human serum (MSSA ATCC 25923 [1])	MBC, MHB (MSSA ATCC 25923 [1])	MIC in the presence of 50% human serum (MSSA ATCC 25923 [2]; 24 h, 37°C)	MIC (MSSA ATCC 25923 [2]; [11])	MIC, MHB (MSSA ATCC 25923 [2])	normalized antibiotic bound to the three lipid bilayers (result in words) [6]	membrane depolarization (result in words) (MSSA ATCC 25923 [4]; 30 min treatment)	other results
CN[C@H](CC(C)C)C(=O)N[C@H]1C(=O)N[C@@H](CC(N)=O)C(=O)N[C@H]2C(=O)N[C@H]3C(=O)N[C@H](C(=O)N[C@H](C(=O)O)c4cc(O)cc(O)c4-c4cc3ccc4O)[C@H](O)c3ccc(c(Cl)c3)Oc3cc2cc(c3O[C@@H]2O[C@H](CO)[C@@H](O)[C@H](O)[C@H]2O[C@H]2C[C@](C)(N)[C@H](O)[C@H](C)O2)Oc2ccc(cc2Cl)[C@H]1O [vancomycin]	2 µg/mL (≈ 1.38 µM)	2 µg/mL (≈ 1.38 µM)	2 µg/mL (≈ 1.38 µM)	2 µg/mL	1 µg/mL (≈ 0.69 µM)	2 µg/mL (≈ 1.38 µM)	negligible binding to each of the three different membranes	–	MIC, 10% Human serum (MSSA ATCC 25923 [2]; Table S1, MHB with 10% human serum, Corning NonTC plates): 1/2; MIC, 50% Human serum (MSSA ATCC 25923 [2]; Table S1, MHB with 50% human serum, Corning NonTC plates): 2 µg/mL (≈ 1.38 µM); morphological changes by TEM (MSSA ATCC 25923 [3]; 16× MIC): did not cause septal deformation or loss of midline; fluorescence leakage (MSSA ATCC 25923 [4]; 12× MIC, 30 min): no leakage; reduction in viable count (MSSA ATCC 25923 [5]; vancomycin at the MBC and above for 8 h): > 3 log10 CFU/ml
GLFDVIKKVASVIGGL-NH2 [citropin 1.1]	–	–	–	–	–	–	–	–	MIC (MSSA ATCC 25923 [2]; ATCC 25923, 24 h): 32 µg/mL
nisin	–	–	–	–	32 µg/mL	–	no binding to either anionic or zwitterionic phospholipid bilayers	dramatic membrane depolarization at the MIC and above	Kd [7]: 0.01 µM; concentration at which membrane depolarization occurs (MSSA ATCC 25923 [4]; 30 min treatment, DiSC3(5), normalized to citropin 1.1 at 10 μM, ramoplanin 3× MIC gives similar extent as […] MIC nisin): 0.25 × MIC; Kd [8]: 100 µM
ramoplanin	–	0.5 µg/mL	8/2	0.5 µg/mL	–	–	POPC:POPG (8:2) > POPC > POPC:POPE (8:2)	dose-dependent membrane depolarization but less efficiently than nisin	MBC as multiple of MIC (MSSA ATCC 25923 [1]): 2 × MIC; MBC (MSSA ATCC 25923 [1]; lowest concentration yielding 99.9% reduction in initial colony count after 24 h, MHB): 4 µg/mL; 50% inhibitory concentration (IC50), transglycosylation [9]: 0.25 × MIC; morphological changes by TEM (MSSA ATCC 25923 [3]; 1× MIC): deformed septa that were slightly thickened, misshapen, and lacked distinct septal midlines; also recorded: appearance of mesosome structures in cell membranes; effect of 50% human serum on MIC (MSSA and MRSA strains): not affected; IC50, MurG-catalyzed reaction [10]: 20 × MIC; time to bactericidal activity (MSSA ATCC 25923 [5]; concentrations equal to or above the MBC): less than 4 h; SPR dissociation after completion of injection ([6]; 0.01 to 1 μM): complete dissociation; SPR association with membranes at low concentrations ([6]; 0.01 to 1 μM, PBS pH 7.3, 25°C): negligible association; SPR binding response (RUBound) ([6]; 3 and 10 μM, both anionic and zwitterionic membranes, 180 s injection, PBS pH 7.3, 25°C): ~6,000 RU; concentration at which binding to anionic and zwitterionic membranes occurs ([6]; dose-dependent): ≥ 3 µM
teicoplanin	0.25 µg/mL	0.5 µg/mL	4 µg/mL	–	1 µg/mL	2 µg/mL	bound preferentially to the anionic membrane over zwitterionic membranes	measurable but minor fluorescence leakage at concentrations significantly higher than the MIC	–
